Patent publication US5457030A, “Method and composition for determining antimicrobial susceptibility of the majority clinically significant Gram postitive organism” (MicroScan, Inc., priority 1993, dated 1995)
In brackets after ≈: the same amount, converted by molar mass. Read-outs that look alike come from different tables or passages of the source.

Tests used:
[1] = Redissolution of fluorogenic substrate after dehydration; format: physicochemical
Text: In the Sensititre™ procedure the substrates mixture consists of alanyl-7-amido-4-methylcoumarin, 4-methylumebelliferyl phosphate and 4-methylumbelliferyl nonanoate. […] Moreover, a special procedure of drying the substrate mixture on a solid carrier in combination with an emulsifying agent was the preferred method in the EP #0,09187 description. Removal of this compound from the mixture allows easy preparation and aliquoting of the fluorogenic substrate mixture. […] The current fluorogenic substrate mixture also allows for testing of a larger range of Gram positive species than previously described. Additionally, the use of the autoSCAN®-W/A allows monitoring of growth for between 31/2 and 15 hours, determination of minimum inhibitory concentration occurring only when sufficient growth has been achieved. This ensures that the minimum inhibitory concentration determinations of each isolate is determined at the optimal time.

Enterococcus faecalis [2] = assay: Percent fluorescence (growth) in wells containing antimicrobial agents, Example 1 (Table 6); format: cell-based; details: Enterococcus faecalis; for activity at 0.25 µg/mL: .25 μg/mL; for activity at 32 µg/mL: 32 μg/mL
Protocol: (§1) A primary inoculum suspension of a bacterial isolate in saline-pluronic, equivalent to a 0.5 McFarland turbidity standard is prepared. The final inoculum suspension is prepared by diluting a 0.3 ml aliquot of the primary suspension in 25 ml of Rapid Pos Inoculum Broth (B1015-14, Baxter Diagnostics Inc., MicroScan Division, West Sacramento, Calif.). A 115 μl of the final inoculum is added to the growth compartment which contains dried material of fluorogenic enzyme substrates equivalent to 0.023 mM leucine-7-amido-4-methylcoumarin, 0.012 mM phenylalanine-7-amido-4-methylcoumarin and 0.058 mM methylumbelliferyl phosphate and 1.15 mM HEPES buffer at pH 7.0. The final inoculum is also added to a number of compartments containing dried material identical to that in the growth well and different concentrations of an antimicrobial agent. An aliquot of the final inoculum is also added to a compartment, containing only dried HEPES buffer, acting as a control. The inoculated multicompartment device (panel) is inserted in the autoSCAN®-W/A. The fluorescence of each compartment is measured at predetermined times and a Growth Index is calculated by dividing the fluorescence of the growth compartment by that of the negative control compartment.
^FL growth - ^FL control
(§2) If the value of the Growth Index is equal to or exceeds a specified value, the Minimum Inhibitory Concentration for every antimicrobial agent present in the multicompartment device is calculated. Otherwise the device is returned to its position and measured again at the next read time. The read times in this example are 3.5, 4.5, 5.5, 7.0, 8.0, 11.0, and 15.0 hours. For calculation of minimum inhibitory concentration, the percent fluorescence of compartments containing the different concentrations of the antimicrobial agent is calculated by subtracting from each compartment the fluorescence of the control well and dividing it by the delta fluorescence of the growth compartment, obtained by subtracting the fluorescence of the negative control compartment from the fluorescence of the growth compartment. The minimum inhibitory concentration is calculated using a mathematical model specific for each concentration range of the antimicrobial agent. Using a mathematical model based on discriminate functional analysis, the minimum inhibitory concentration of each antimicrobial agent, for the organism tested, can be determined. Utilization of a discriminate function analysis model in microbiological pattern recognition is described in S. Bascomb, Computers in Taxonomy and Systematics, p. 65-102 In T. N. Bryant and J. W. T. Wimpenny (Ed.), Computers in Microbiology, a Practical Approach (IRL Press, Oxford). In an alternative embodiment the minimum inhibitory concentration for each antimicrobial agent for the organism tested can be determined by a breakpoint or threshold method or linear regression analysis. J. McKie, et al., Antimicrobial Agents and Chemotherapy (1980) v. 17, 813-823.
(§3) In Example 1, the growth of Enterococcus faecalis in wells containing specified amounts of antimicrobial agents is estimated by measurement of fluorescence. In Table 6, the percent fluorescence at different concentrations of antimicrobial agents is reported. For example, 0.12, 0.25, 0.5, 1, 2, 4 and 8 μg/mL of ampicillin (Am) were present in the microdilution wells.
The numbers 105, 105, 67, 7, 6, 5, 6 are percent fluorescence values as calculated in […]. These figures are used to determine susceptibility according to the methods discussed on pages 12 and 13.

Enterococcus faecalis [3] = assay: Minimum inhibitory concentration determination, Example 1 (Table 7); format: cell-based
Protocol: as §1, §2, §3
In Table 7, the minimum inhibitory concentration for Example 1 are reported.

[4] = 1 μg/mL, read-out: percent fluorescence
[5] = 2 μg/mL, read-out: percent fluorescence
[6] = 4 μg/mL, read-out: percent fluorescence
[7] = 8 μg/mL, read-out: percent fluorescence
[8] = Enterococcus faecalis, Table 7, Example 1, read-out: concentration at which organism was found to be susceptible
[9] = Table 7, Enterococcus faecalis, Example 1, read-out: minimum inhibitory concentration
[10] = 16 μg/mL, read-out: percent fluorescence
[11] = Enterococcus faecalis, Table 7, Example 1, read-out: concentration at which organism was found to be resistant
[12] = Enterococcus faecalis, read-out: concentration at which organism was found to be susceptible
[13] = Enterococcus faecalis, read-out: minimum inhibitory concentration

MIC (Enterococcus faecalis [3]; [9]) [µg/mL] | MIC (Enterococcus faecalis [3]; [11]) [µg/mL] | Structure (SMILES) | activity at 2 µg/mL (Enterococcus faecalis [2]; [5]) [%] | activity at 4 µg/mL (Enterococcus faecalis [2]; [6]) [%] | activity at 8 µg/mL (Enterococcus faecalis [2]; [7]) [%] | activity at 16 µg/mL (Enterococcus faecalis [2]; [10]) [%] | also measured
– | – | CCCCCCCCC(=O)Oc1ccc2c(C)cc(=O)oc2c1 [4-methylumbelliferyl nonanoate] | – | – | – | – | redissolution after dehydration [1]: difficult to redissolve evenly after dehydration
0.5 (≈ 1.43 µM) | – | CC1(C)S[C@@H]2[C@H](NC(=O)[C@H](N)c3ccccc3)C(=O)N2[C@H]1C(=O)O [Ampicillin] | 6 | 5 | 6 | – | activity at 1 µg/mL (Enterococcus faecalis [2]; [4]): 7%; activity at 0.12 µg/mL (Enterococcus faecalis [2]; .12 μg/mL, read-out: percent fluorescence): 105%; activity at 0.25 µg/mL (Enterococcus faecalis [2]; read-out: percent fluorescence): 105%; activity at 0.5 µg/mL (Enterococcus faecalis [2]; .5 μg/mL, read-out: percent fluorescence): 67%; MIC (Enterococcus faecalis [3]; [8]): 0.5 µg/mL (≈ 1.43 µM)
> 16 | > 16 | Cn1nnnc1SCC1=C(C(=O)O)N2C(=O)[C@@H](NC(=O)[C@H](O)c3ccccc3)[C@H]2SC1 [Cefamandole] | – | – | 104 | 105 | –
> 16 | > 16 | Cc1nnc(SCC2=C(C(=O)O)N3C(=O)[C@@H](NC(=O)Cn4cnnn4)[C@H]3SC2)s1 [Cefazolin] | 105 | 102 | 104 | 100 | –
> 4 | – | CO/N=C(\C(=O)N[C@@H]1C(=O)N2C(C(=O)O)=C(COC(C)=O)CS[C@H]12)c1csc(N)n1 [Cefotaxime] | – | 10 | 8 | 8 | activity at 32 µg/mL (Enterococcus faecalis [2]): 7%; MIC (Enterococcus faecalis [3]; [8]): < 4 µg/mL
– | – | CO/N=C(\C(=O)N[C@@H]1C(=O)N2C(C(=O)O)=C(CSc3nc(=O)c(=O)[nH]n3C)CS[C@H]12)c1csc(N)n1 [Ceftriaxone] | – | 15 | 9 | 8 | activity at 32 µg/mL (Enterococcus faecalis [2]): 7%
> 16 | > 16 | CO/N=C(\C(=O)N[C@@H]1C(=O)N2C(C(=O)O)=C(COC(N)=O)CS[C@H]12)c1ccco1 [Cefuroxime] | 85 | 39 | 15 | 10 | –
– | – | CC(=O)OCC1=C(C(=O)O)N2C(=O)[C@@H](NC(=O)Cc3cccs3)[C@H]2SC1 [Cephalothin, Cephalotin] | – | – | – | – | activity at 8 µg/mL (Enterococcus faecalis [2]; read-out: percent fluorescence): 103%; activity at 16 µg/mL (Enterococcus faecalis [2]; read-out: percent fluorescence): 7%; MIC (Enterococcus faecalis [3]; [12]): 16 µg/mL (≈ 40.4 µM); MIC (Enterococcus faecalis [3]; [13]): 16 µg/mL (≈ 40.4 µM)
– | – | O=C(N[C@H](CO)[C@H](O)c1ccc([N+](=O)[O-])cc1)C(Cl)Cl [Chloramphenicol] | – | – | – | – | activity at 4 µg/mL (Enterococcus faecalis [2]; read-out: percent fluorescence): 9%; activity at 8 µg/mL (Enterococcus faecalis [2]; read-out: percent fluorescence): 6%; activity at 16 µg/mL (Enterococcus faecalis [2]; read-out: percent fluorescence): 4%; MIC (Enterococcus faecalis [3]; [12]): < 4 µg/mL; MIC (Enterococcus faecalis [3]; [13]): < 4 µg/mL
– | – | O=C(O)c1cn(C2CC2)c2cc(N3CCNCC3)c(F)cc2c1=O [Ciprofloxacin] | – | – | – | – | activity at 1 µg/mL (Enterococcus faecalis [2]; read-out: percent fluorescence): 6%; activity at 2 µg/mL (Enterococcus faecalis [2]; read-out: percent fluorescence): 6%; activity at 4 µg/mL (Enterococcus faecalis [2]; read-out: percent fluorescence): 6%; MIC (Enterococcus faecalis [3]; [12]): < 1 µg/mL; MIC (Enterococcus faecalis [3]; [13]): < 1 µg/mL
> 2 | > 2 | CCC[C@@H]1C[C@@H](C(=O)N[C@@H]([C@H]2O[C@H](SC)[C@H](O)[C@@H](O)[C@H]2O)[C@H](C)Cl)N(C)C1 [Clindaimycin, Clindamycin] | 71 | – | – | – | activity at 1 µg/mL (Enterococcus faecalis [2]; [4]): 75%; activity at 5 µg/mL (Enterococcus faecalis [2]; 5 μg/mL (printed 5Cd)): 83%; activity at 0.25 µg/mL (Enterococcus faecalis [2]; read-out: percent fluorescence): 88%
